Values after ≈ are worked out from the molar mass of the structure shown.
System: P388
Test: Cytotoxicity against mouse P388 cells
Format: functional, cell-based

Q: How did the IC50 turn out when COC(CC1OC(=O)CC(O)CC(SC[C@H](NC(=O)CC[C@H](N)C(=O)O)C(=O)NCC(=O)O)CC(=O)C(C)C(OC)c2coc(n2)-c2coc(n2)-c2coc(n2)/C=C/CC(OC)C1C)C(C)CCC(=O)C(C)C(OC(C)=O)C(C)/C=C/N(C)C=O (some centres not stated) [THIOMYCALOLIDE A] was run?
A: 0.018 µg/mL (≈ 0.0148 µM)

Q: Which IC50 does the source give for COCC(OC)C(=O)OC(CCC(C)C(CC1OC(=O)CC(O)CC(SC[C@H](NC(=O)CC[C@H](N)C(=O)O)C(=O)NCC(=O)O)CC(=O)C(C)C(OC)c2coc(n2)-c2coc(n2)-c2coc(n2)/C=C/CC(OC)C1C)OC)C(C)C(OC(C)=O)C(C)/C=C/N(C)C=O (some centres not stated) [THIOMYCALOLIDE B] here?
A: 0.018 µg/mL (≈ 0.0135 µM)

Source: ChEMBL document CHEMBL1150889, “Thiomycalolides: new cytotoxic trisoxazole-containing macrolides isolated from a marine sponge Mycale sp” (J Nat Prod, 1998)
